Assay results reported in ChEMBL document CHEMBL1201862, “PubChem BioAssay data set” (2004).
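In this assay, cells in 96-well plates receive the compound at five concentrations for 48 hours. Endpoints are linearly interpolated between the surrounding concentrations. Here, GI50 denotes the concentration required for 50% inhibition of growth.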 Activity calls are given as the source filed them. No stated cut-off is given here; in the data, active = GI50 up to about 1.1 µM and inactive = higher.

How the values were obtained:
Test in all cases: NCI-60 cell line screen, 48 h
K562 = system: K562
CCRF-CEM = system: CCRF-CEM
U-251 = system: U-251
TK-10 = system: TK-10
HCT-15 = system: HCT-15
NCI-H23 = system: NCI-H23
NCI-H226 = system: NCI-H226
SK-OV-3 = system: SK-OV-3
OVCAR-5 = system: OVCAR-5
IGROV-1 = system: IGROV-1
HOP-62 = system: HOP-62
OVCAR-4 = system: OVCAR-4
OVCAR-8 = system: OVCAR-8
M14 = system: M14
SF-539 = system: SF-539
MOLT-4 = system: MOLT-4
A498 = system: A498
EKVX = system: EKVX

Row | Compound | GI50 (K562) | GI50 (CCRF-CEM) | GI50 (U-251) | GI50 (TK-10) | GI50 (HCT-15) | GI50 (NCI-H23) | GI50 (NCI-H226) | GI50 (SK-OV-3) | GI50 (OVCAR-5) | GI50 (IGROV-1) | GI50 (HOP-62) | GI50 (OVCAR-4) | GI50 (OVCAR-8) | GI50 (M14) | GI50 (SF-539) | GI50 (MOLT-4) | GI50 (A498) | GI50 (EKVX)
1 | O=C(c1ccco1)N(C(=S)N1CCN(c2ccccn2)CC1)c1ccccc1 | > 100 µM (inactive) | > 100 µM (inactive) | > 100 µM (inactive) | > 100 µM (inactive) | > 100 µM | > 100 µM (inactive) | 18.7 µM (inactive) | > 100 µM (inactive) | > 100 µM (inactive) | > 100 µM (inactive) | > 100 µM (inactive) | > 100 µM (inactive) | > 100 µM (inactive) | > 100 µM (inactive) | > 100 µM (inactive) | > 100 µM (inactive) |  | 
2 | CC12CCCCC1(C)C2Sc1ccccc1 (stereo not given) | 13.5 µM (inactive) | 19.7 µM (inactive) | 32.3 µM (inactive) | > 100 µM (inactive) | 55.5 µM | 52.6 µM (inactive) | 54.3 µM (inactive) | > 100 µM (inactive) | > 100 µM (inactive) | > 81.7 µM (inactive) | > 100 µM (inactive) | > 73.3 µM (inactive) | 42 µM (inactive) | 88.5 µM (inactive) | > 100 µM (inactive) | 19.1 µM (inactive) | > 50.4 µM (inactive) | > 57.3 µM (inactive)
3 | CC1=C(C(=O)Nc2c(C)cccc2C)C(c2ccccc2Cl)C(C(=O)Nc2c(C)cccc2C)=C(C)N1 | > 100 µM (inactive) | > 100 µM (inactive) | > 100 µM (inactive) | > 100 µM (inactive) |  | > 100 µM (inactive) | > 100 µM (inactive) | > 100 µM (inactive) | > 100 µM (inactive) | > 100 µM (inactive) | > 100 µM (inactive) | > 100 µM (inactive) | > 100 µM (inactive) | > 100 µM (inactive) | > 100 µM (inactive) | > 100 µM (inactive) | > 100 µM (inactive) | > 100 µM (inactive)
4 | NC1=NN(c2ccccc2)C(=O)C1C(=O)C(=O)Nc1ccccc1 (stereo not given) | > 100 µM (inactive) | > 100 µM (inactive) | > 100 µM (inactive) | > 100 µM (inactive) | > 100 µM | > 100 µM (inactive) | > 100 µM (inactive) | > 100 µM (inactive) | > 100 µM (inactive) | > 100 µM (inactive) | > 100 µM (inactive) | > 100 µM (inactive) | > 100 µM (inactive) | > 100 µM (inactive) | > 100 µM (inactive) | > 100 µM (inactive) | > 100 µM (inactive) | > 100 µM (inactive)
5 | CCOc1ccccc1NC(=O)C1=C(C)NC(C)=C(C(=O)Nc2ccccc2OCC)C1c1ccc([N+](=O)[O-])cc1 |  |  | > 100 µM (inactive) |  | 75.3 µM | 44 µM (inactive) | 21.4 µM (inactive) | > 100 µM (inactive) | > 100 µM (inactive) | 45.2 µM (inactive) | > 100 µM (inactive) | 68.9 µM (inactive) |  | 89.5 µM (inactive) | > 100 µM (inactive) |  | 78.9 µM (inactive) | 54 µM (inactive)
6 | COc1c(OC(C)=O)ccc(/C=C2\N=C(C)OC2=O)c1[N+](=O)[O-] | > 100 µM (inactive) | > 100 µM (inactive) | > 100 µM (inactive) | > 100 µM (inactive) | > 100 µM |  |  | > 100 µM (inactive) | > 100 µM (inactive) | > 100 µM (inactive) | > 100 µM (inactive) | > 100 µM (inactive) | > 100 µM (inactive) | > 100 µM (inactive) | > 100 µM (inactive) | > 100 µM (inactive) | > 100 µM (inactive) | 
7 | CCC(C(=O)O)c1ccc(OCc2ccccc2)cc1 (stereo not given) | > 100 µM (inactive) | > 100 µM (inactive) | > 100 µM (inactive) | > 100 µM (inactive) |  | > 100 µM (inactive) | > 100 µM (inactive) | > 100 µM (inactive) | > 100 µM (inactive) | > 100 µM (inactive) | > 100 µM (inactive) | > 100 µM (inactive) |  | > 100 µM (inactive) | > 100 µM (inactive) | > 100 µM (inactive) | > 100 µM (inactive) | > 100 µM (inactive)
8 | Cc1ccc(NC(=O)C(=O)CC(=O)c2c(C)[n+]([O-])c3ccccc3[n+]2[O-])cc1C | > 100 µM (inactive) | 63.1 µM (inactive) | > 100 µM (inactive) | > 100 µM (inactive) | 83.2 µM | > 100 µM (inactive) | > 100 µM (inactive) | > 100 µM (inactive) | > 100 µM (inactive) | > 100 µM (inactive) | > 100 µM (inactive) | > 100 µM (inactive) | > 100 µM (inactive) | 74.8 µM (inactive) | > 100 µM (inactive) |  | > 100 µM (inactive) | > 100 µM (inactive)
9 | c1ccc(C2OCCO2)c(OCCOc2cc(OCCOc3ccccc3C3OCCO3)c(OCCOc3ccccc3C3OCCO3)cc2OCCOc2ccccc2C2OCCO2)c1 | > 100 µM (inactive) | > 100 µM (inactive) | 10.3 µM (inactive) | 14.7 µM (inactive) | > 100 µM | 11.3 µM (inactive) | 13 µM (inactive) | 2.76 µM (inactive) | > 100 µM (inactive) | 12.4 µM (inactive) | 13.3 µM (inactive) | 8.34 µM (inactive) | 13.9 µM (inactive) | 26.7 µM (inactive) | 10.7 µM (inactive) | > 100 µM (inactive) | 15.8 µM (inactive) | 
10 | Cc1cc2ncn(-c3nc4ccccc4nc3C(C#N)S(C)(=O)=O)c2cc1C (stereo not given) | > 100 µM (inactive) | > 100 µM (inactive) | > 100 µM (inactive) | > 100 µM (inactive) | > 100 µM | > 100 µM (inactive) | 13.4 µM (inactive) | 0.946 µM (active) | > 100 µM (inactive) | > 100 µM (inactive) | > 100 µM (inactive) | > 100 µM (inactive) | > 100 µM (inactive) | > 100 µM (inactive) | > 100 µM (inactive) | > 100 µM (inactive) | 19.7 µM (inactive) | > 100 µM (inactive)
11 | CCN(CC)CCCCC1CCN(CC(=O)N2c3cc(Cl)ccc3NC(=O)CC2C)CC1 (stereo not given) | 79.6 µM (inactive) | > 100 µM (inactive) | > 100 µM (inactive) |  | > 100 µM | > 100 µM (inactive) | > 100 µM (inactive) | > 100 µM (inactive) | > 100 µM (inactive) | > 100 µM (inactive) | > 100 µM (inactive) | > 100 µM (inactive) |  | > 100 µM (inactive) |  | > 100 µM (inactive) | > 100 µM (inactive) | 
12 | CCCCNC(=O)C1C(=O)N(CCCC)C(=O)/C1=N\N (stereo not given) | > 100 µM (inactive) |  | > 100 µM (inactive) | > 100 µM (inactive) | > 100 µM | > 100 µM (inactive) | > 100 µM (inactive) | > 100 µM (inactive) | > 100 µM (inactive) | > 100 µM (inactive) | > 100 µM (inactive) | > 100 µM (inactive) | > 100 µM (inactive) | > 100 µM (inactive) | > 100 µM (inactive) | > 100 µM (inactive) | > 100 µM (inactive) | > 100 µM (inactive)
13 | O=C(O)/C(=C/c1c(O)ccc2ccccc12)c1csc(-c2nc(/C(=C\c3c(O)ccc4ccccc34)C(=O)O)cs2)n1 | 15.8 µM (inactive) | 10.7 µM (inactive) | 14 µM (inactive) | 29 µM (inactive) | 14.4 µM | 9.55 µM (inactive) | 2.49 µM (inactive) | 12.3 µM (inactive) | 17.5 µM (inactive) | 11.1 µM (inactive) | 10 µM (inactive) |  | 22.2 µM (inactive) | 11.7 µM (inactive) | 6.17 µM (inactive) | 13.4 µM (inactive) | 20.7 µM (inactive) | 41.2 µM (inactive)
14 | ClC(Cl)[Si]12OCCN(CCO1)CCO2 | > 100 µM (inactive) | > 100 µM (inactive) | > 100 µM (inactive) | > 100 µM (inactive) |  | > 100 µM (inactive) |  | > 100 µM (inactive) | > 100 µM (inactive) | > 100 µM (inactive) |  |  | > 100 µM (inactive) |  | > 100 µM (inactive) | > 100 µM (inactive) | > 100 µM (inactive) | 
15 | COc1ccc(C2C(C#N)=C(O)NC(O)=C2C#N)cc1OC |  |  | > 100 µM (inactive) |  | > 100 µM |  |  | > 100 µM (inactive) | > 100 µM (inactive) | > 100 µM (inactive) | > 100 µM (inactive) |  | > 100 µM (inactive) | > 100 µM (inactive) | > 100 µM (inactive) | > 100 µM (inactive) | > 100 µM (inactive) | > 100 µM (inactive)
16 | Cc1ccccc1NC(=O)C1C(=O)N(c2ccccc2C)C(=O)/C1=N\NC(N)=O (stereo not given) | > 100 µM (inactive) | > 100 µM (inactive) | > 100 µM (inactive) | > 100 µM (inactive) | > 100 µM | > 100 µM (inactive) |  |  | > 100 µM (inactive) | > 100 µM (inactive) | > 100 µM (inactive) | > 100 µM (inactive) | > 100 µM (inactive) | > 100 µM (inactive) | > 100 µM (inactive) | > 100 µM (inactive) | > 100 µM (inactive) | > 100 µM (inactive)
17 | CCC12CCC[C@@]13C=C[C@H](O3)C(C)(C)C2=O (stereo not given in full) | > 100 µM (inactive) | > 100 µM (inactive) | > 100 µM (inactive) | > 100 µM (inactive) | > 100 µM | > 100 µM (inactive) | > 100 µM (inactive) | > 100 µM (inactive) | > 100 µM (inactive) | > 100 µM (inactive) | > 100 µM (inactive) | > 100 µM (inactive) | > 100 µM (inactive) | > 100 µM (inactive) | > 100 µM (inactive) | > 100 µM (inactive) |  | > 100 µM (inactive)
